Measured values reported in patent publication US20260232608A1, “AMINOTHIOLS FOR THE TREATMENT OF CONDITIONS CHARACTERIZED BY PROTEIN MISFOLDING OR AGGREGATION, MITOCHONDRIAL DYSFUNCTION, OR CHRONIC INFLAMMATION” (Obvia Pharmaceuticals, Ltd., priority 2023, published 2026).
Entries after “also recorded” stand apart in the source; their conditions may differ.

How the values were obtained:
[1] = 1H NMR stability of PrC-210 in deuterated water under pH titration; format: physicochemical
Procedure: (§1) We established the chemical structure profile of PrC-210 using Nuclear Magnetic Resonance (NMR) spectroscopy experiments. […] This structural stability of the PrC-210 mono-thiol form in this pH range remained for at least the observed 24 hours. […] In our pH titrations between pH 9.0 and 13.0, we saw clear structural changes to PrC-210; from these progressive changes, we calculated that the pKas of the two PrC-210 amines are all substantially above the pH (pH 7.2) of physiological conditions (FIG. 3).

[2] = pKa of the two PrC-210 amines from NMR pH titration; format: physicochemical; conditions: pH titrations between pH 9.0 and 13.0; FIG. 3 legend: 3 pH units above physiological pH
Procedure: as §1

[3] = 1H NMR stability / thiol reactivity of PrC-210 with ammonium acetate (disulfide formation); format: physicochemical
[4] = Pharmacokinetics study with [14]C-labeled PrC-210, intravenous, male rats; format: in vivo; conditions: after 48 hr
Text: We were also interested to see whether PrC-210-cysteine disulfide formation is transient or permanent; permanent PrC-210 hetero-disulfide formation with cellular proteins would be expected to have an impact on protein function and could translate into unwanted, toxic, side effects and should be seen as PrC-210 residues showing up as urinary or fecal metabolites. […] C labeled PrC-210, we found only minimal metabolism of PrC-210 (1.07%) after 48 hr (FIG. 7, unpublished data). It is well described that i) disulfide binding is reversible (see, e.g., Koji Aoyama, Int. J. Mol. Sci. 2021, 22 (9), 5010) and ii) that there are also two highly efficient thiol reducing systems in the cell (see, e.g., Cumming et al., The Journal of Biological Chemistry vol. 279, No. 21, Issue of May 21, pp. 21749-21758, 2004), which reduce disulfide bonds between glutathione and proteins in non-oxidative stress situations (see, e.g., Koji Aoyama, Int. J. Mol. Sci. 2021, 22 (9), 5010). Based upon both our experimental findings and the published literature, it would then be logical that PrC-210 disulfide bonds with proteins would be governed by the same chemical and enzymatic processes.

[5] = Consumption of PrC-210 thiol by hydrogen peroxide, with or without ammonium acetate; format: physicochemical; conditions: pH 7
Procedure: We believe that the increased reactivity of the thiol in the presence of negative charges, such as ammonium acetate, also occurs when PrC-210-thiol is in close proximity to other reactive structures, such as hydrogen peroxide. We have studied hydrogen peroxide, as it is a non-radical oxygen species with a much longer half-life than superoxide. We added hydrogen peroxide to an aqueous 5 mM solution of PrC-210 thiol at pH 7.

[6] = system: Caspase 8, Caspase 3/7; assay: Apoptosis markers in mice irradiated with 8.68 Gy, PrC-210 given before irradiation; format: in vivo, mouse
Procedure: To examine PrC-210-conferred protection in an animal model, we irradiated mice with 8.68 Gy and treated them with a 0.5MTD dose of PrC-210 30 minutes before irradiation. Normally, lethal radiation with 8.68 Gy leads to massive DNA damage and activation of the intrinsic apoptotic pathway. […] This means that the radiation insult didn't trigger a significant activation of the intrinsic apoptotic pathway nor did it trigger a mitotic arrest with p53 activation. […] This apoptotic suppression and protection lasted for the entire observation time of six days, which is a sign, that PrC-210 was still present after six days. When we looked at mouse plasma in the same experiment, we saw the same 6 days apoptotic suppression as in the brain in caspase 3/7 levels (FIG. 9F).

[7] = system: SOD1^G93A mice; assay: Body weight of SOD1G93A ALS mice; format: in vivo, mouse; conditions: systemic PrC-210 0.1 MTD, IP
Text: This experiment was designed to illuminate whether PrC-210 is able to stop the progression of diseases which are based on protein aggregation, such as Amyotrophic Lateral Sclerosis (ALS). […] Weight loss was progressive and was in exponential decline along with onset of ALS motor symptoms. […] As ALS pathology is based upon protein aggregation, the findings in this experiment support our inventive concept that PrC-210 is able to suppress protein misfolding and thereby suppress the pathology of these diseases. This invention applies to all neuronal, organ specific and systemic diseases which are caused by protein aggregations, such as neurodegenerative diseases, local and systemic amyloidosis, Type II diabetes, cataract of the eye, etc.

[8] = system: Cytochrome C; assay: Cytochrome C release in mouse heart after 8.68 Gy, PrC-210 given 24 hours after irradiation; format: in vivo; conditions: PrC-210 0.3 MTD given 24 hours post-irradiation
Procedure: Different from the first peak after 12 hours, this peak is not due to DNA damage and activation of the intrinsic apoptotic pathway, as there is neither an associated p53 nor 8-oxo-dG increase at 48 hours post-irradiation (data not shown), nor an activation of the intrinsic apoptotic pathway (FIG. 11B). This peak represents a massive damage of complex IV of the respiratory chain, which is located at the inner mitochondrial membrane. […] This discovery teaches us, that PrC-210 enters mitochondria and protects the proteins and lipids of the mitochondrial membranes against insults, insults which result in the release of cytochrome C. This invention applies to all diseases which are caused by damage of the mitochondria, such as aging and all age-related diseases, neurodegenerative diseases, diseases of the cardio-vascular system, such as arteriosclerosis, damage of the heart valves or main arteries, and in general to diseases caused by damage of the mitochondria membranes, the mitochondria DNA and proteins.

[9] = system: caspase 1, complement 3 (C3); assay: Inflammation markers in mouse brain after 8.68 Gy, PrC-210 given 24 hours after irradiation; format: in vivo, ICR mice; conditions: 8.68 Gy whole-body, 0.3 MTD i.p. 24 hours after irradiation
Procedure: To visualize the effect of radiation on the immune response of the mouse brain, ICR mice received 8.68 Gy whole-body radiation (FIG. 10) at Time “0.” O.3MTD, i.p. PrC-210 was administered 24 hours after irradiation. […] The same applied to the inflammation marker, complement 3 (C3) (FIG. 12B). […] Most important, this suppression was a direct suppression of the immune response and was not an indirect suppression through protection of proteins and lipids against damage. Radiation-induced protein damage would have triggered an apoptotic response, as it can be seen in the second peak of caspase 3/7 in FIG. 12C. Therefore, this experiment teaches that PrC-210 is able to enter the brain and directly suppresses post-irradiation inflammation.

[10] = system: C57 mice; assay: EAE model, paralysis score after immunization with MOG peptide; format: in vivo, mouse
Procedure: To show, that PrC-210 suppresses neuroinflammation which is caused by an autoimmune induction of the disease, PrC-210 was applied 24 hours before immunization of C57 mice against MOG peptide (FIG. 13A), and immediately after first paralysis symptoms developed from the autoimmunization against myelin.

[11] = system: DBA/1J mice; assay: Paw swelling in DBA/1J mice immunized against collagen III; format: in vivo, mouse
Text: To show further, that this suppression of chronic inflammation applies generally to other organs than the brain, DBA/1J mice immunized against collagen III where treated systemically and topically with PrC-210.

[12] = within its therapeutic window; cited from earlier work
[13] = 0.5 MTD PrC-210 before irradiation

CNCC(CS)CNC [PrC-210]
stability at high pH after 72 hours (1H NMR) ([1]; deuterated water, pH 9.0, 72 hrs): significant change; also recorded: some instability
effect of the thiol blocker TCEP on PrC-210 stability ([1]; water, pH 9.0, 72 hr, TCEP added, data not shown): doesn't influence the PrC-210 stability
pKas of the two amines of PrC-210 [2]: > 7.2
half-life ([3]; aqueous solution with ammonium acetate, ammonium acetate added to aqueous PrC-210 mono-thiol solution, pH 7.2 (FIG. 6A)): 3.1 h
stability of PrC-210 with ammonium acetate and TCEP (1H NMR) ([3]; deuterated water with ammonium acetate and thiol blocker TCEP, pH 7.0, 24 hours): remains stable
structural change of PrC-210 with ammonium acetate (1H NMR) ([3]; deuterated water with ammonium acetate, pH 7.0, 1 hour and 24 hours): substantial structural changes within hours
PrC-210 half-life in water ([3]; water, previously observed): days
metabolism of PrC-210 [4]: 1.07%
effect of ammonium acetate on hydrogen peroxide consumption of PrC-210 thiol ([5]; ammonium acetate (5 mM) added seconds before hydrogen peroxide (0.5 mM), 5 mM PrC-210 thiol): significant enhancement; also recorded: significantly enhanced
consumption of free PrC-210 thiol by hydrogen peroxide ([5]; aqueous 5 mM PrC-210 thiol): dose-dependent consumption
Caspase 3/7 level in mouse plasma ([6]; 0.5 MTD PrC-210 30 min before irradiation): suppressed to background
duration of apoptotic suppression and protection in brain ([6]; 0.5 MTD PrC-210, entire observation time): six
duration of apoptotic suppression (caspase 3/7) in mouse plasma ([6]; 0.5 MTD PrC-210, same experiment): 6 days
Caspase 3/7 level in mouse brain [6, 13]: suppressed to background
Caspase 8 level in mouse brain [6, 13]: suppressed to background
body weight / weight loss [7]: immediate plateau in body weight loss
cytochrome C release in heart muscle (second peak, 48 hours post-irradiation) [8]: suppress cytochrome C release to background
inflammation marker complement 3 (C3) in mouse brain [9]: significantly suppressed
inflammasome marker caspase 1 in mouse brain ([9]; starting eight days after radiation): significantly suppressed
development and severity of paralysis symptoms ([10]; twice weekly intraperitoneal PrC-210 started 24 hours before immunization with MOG peptide): significantly suppressing
development and severity of paralysis symptoms ([10]; twice weekly intraperitoneal PrC-210 started when first paralysis symptoms were observed): significantly suppressing
swelling of paws ([11]; 370 mM PrC-210 applied topically, started at paw swelling score higher than 10): significantly reduced
swelling of paws ([11]; twice weekly intraperitoneal injection of 0.075 MTD PrC-210, started with first paw symptoms): significantly reduced
toxic side effects [12]: no toxic side effects
